This is an account of results in patent US20040260060A1, “Constructs modified downstreams of the initiation codon for recombinant protein” (priority 2000, published 2004).

In data set [1] the test system is chloramphenicol acetyltransferase (CAT) reporter gene. Briefly: Level of CAT expression by ELISA after IAA induction in Erlenmeyer flask cultures. Particulars: for CAT expression: relative to wild-type vector pTEXwt = 1. In kind it is cell-based, E. coli. The source says:
The supernatant is marked “S”.
The results (mean±standard deviation) were obtained on two independent experiments. […]
The methods for determining the expression are those used in the examples above.
In general terms: ELISA stands for enzyme-linked immunosorbent assay.

Data set [2] concerns TOP10 x pTEXCAT bacteria. Briefly: Chloramphenicol resistance of TOP10 x pTEXCAT bacteria on agar dishes, colony count and growth. In kind it is cell-based, E. coli. Set-up: key to qualitative criterion of colony growth: −: absence of growth; +++: maximum growth. Particulars: for number of colonies counted: 18 h at 37° C., approximately 100 cells seeded. How it is done:
The libraries are screened based on the hypothesis that the clones overexpressing the CAT enzyme will have increased resistance to chloramphenicol.
The numbers (upper row) indicate the number of colonies counted after incubation for 18 h at 37° C., each medium having been seeded with approximately 100 cells.
The index of the lower row is a qualitative criterion of colony growth (−=absence of growth to +++=maximum growth).
This implies that clones which overproduce CAT due to an optimized RBS region may either develop more rapidly than the wild-type population at a chloramphenicol concentration lower than the MIC (mininimum inhibitory concentration), or develop in the presence of chloramphenicol concentrations which are lethal for the wild-type population.

In data set [3] the test system is chloramphenicol acetyltransferase (CAT). Particulars: IAA-induced extracts.
Description: The resistant colonies are isolated and subcultured several times on the selection medium in order to confirm their resistance phenotype. The clones selected at this stage are then subjected to a series of analyses: (i) extraction of the plasmid (Qiagen kit, Hilden, Germany) and sequencing of the region covering the RBS, (ii) culturing in Erlenmeyer flasks with induction by IAA and then estimation of the level of CAT expression by ELISA assay, (iii) electrophoresis, by SDS-PAGE, of the total proteins extracted from the preceding cultures and staining with Coomassie Blue to visualize total intracellular proteins. The clones are sequenced using the Dye Terminator kit on an ABI 373A sequencer (Perkin Elmer Applied Biosystems, Foster City, Calif.). The cultures in Erlenmeyer flasks are prepared by seeding 25 ml of TSBY (30 g/l tryptic soy broth (DIFCO)+5 g/l yeast extract (Difco)) medium+8 mg/l tetracycline with a colony on a dish or with a bacterial suspension stored at −80° C. Each preculture is incubated on a platform shaken at 200 rpm, at 37° C. overnight. A fraction is transferred into 50 ml of the same medium so as to reach an initial optical density equal to 1. […] The total proteins contained in the I and S fractions are analyzed by electrophoresis under denaturing conditions (SDS-PAGE) and staining with Coomassie Blue.
Setting [4] is: chloramphenicol 200 μg/ml, IAA = 0.
Where [5] appears, read: chloramphenicol 200 μg/ml, IAA = 25 μg/ml.
The mark [6] stands for this setting: chloramphenicol 300 μg/ml, IAA = 25 μg/ml.
Where [7] appears, read: chloramphenicol 600 μg/ml, IAA = 0.
Where [8] appears, read: chloramphenicol 600 μg/ml, IAA = 25 μg/ml.
[9] abbreviates: chloramphenicol 700 μg/ml, IAA = 0.
The mark [10] stands for this setting: chloramphenicol 700 μg/ml, IAA = 25 μg/ml.
Where [11] appears, read: chloramphenicol 800 μg/ml, IAA = 0.
The mark [12] stands for this setting: chloramphenicol 800 μg/ml, IAA = 25 μg/ml.

“pTEX9′: clone from the (R7N6) library, SEQ ID No. 31, deletion of region Ile4Asn8 (DNA UGAGGAGAGUAAUCAUGAAAGCAGCGGAAUUC; expressed or natural sequence)” had a CAT expression in data set [1] of 249.

On to `O=C(N[C@H](CO)[C@H](O)c1ccc([N+](=O)[O-])cc1)C(Cl)Cl` [Chloramphenicol, chloramphenicol], for which the “qualitative criterion of colony growth” value in data set [2] (setting [4]) is listed as “+++”; in data set [2] (setting [5]) it was “+++”; in data set [2] (setting [6]), “+++”; in data set [2] (setting [7]), “−”; in data set [2] (setting [8]) it was “−”; in data set [2] (setting [9]), “−”. Further, the “qualitative criterion of colony growth” value in data set [2] (setting [10]), in data set [2] (setting [11]) and in data set [2] (setting [12]) was “−” throughout. The “number of colonies counted” value is recorded as 91 in data set [2] (setting [4]); 65 in data set [2] (setting [5]); 74 in data set [2] (chloramphenicol 300 μg/ml, IAA = 0); 76 in data set [2] (setting [6]); 73 in data set [2] (chloramphenicol 400 μg/ml, IAA = 0); 53 in data set [2] (chloramphenicol 400 μg/ml, IAA = 25 μg/ml). The “number of colonies counted” value is 47 in data set [2] (chloramphenicol 500 μg/ml, IAA = 0); 71 in data set [2] (chloramphenicol 500 μg/ml, IAA = 25 μg/ml); 0 in data set [2] (setting [7]); 1 in data set [2] (setting [8]); 0 in data set [2] (setting [9]); 0 in data set [2] (setting [10]). Besides, the “number of colonies counted” value in data set [2] (setting [11]) and in data set [2] (setting [12]) was 0 throughout.

In data set [1], “pTEX10′: vector derived from pTEX9′ with additional deletion, SEQ ID No. 33 (DNA UGAGGAGAGUAAUCAUGAAAGCAGAAUUC)” showed a CAT expression of 253.

“pTEX11′: vector derived from pTEX9′ with additional deletion, SEQ ID No. 35 (DNA UGAGGAGAGUAAUCAUGAAAGAAUUC)”: the CAT expression in data set [1] was 124.

In the case of `O=C(O)C=Cc1c[nH]c2ccccc12` [IAA, 3-β indole acrylic acid], the “development of TOP10 x pTEXCAT bacteria in the presence of IAA versus its absence” value in data set [2] (between 300 and 600 μg/ml of chloramphenicol) is “more strongly”.

Consider “pTEXCAT: wild-type reference plasmid: pTEXmp18 (Ptrp promoter, TrpL leader) with the CAT reporter gene cloned at EcoRI/PstI; SEQ ID No. 19 (DNA AAGGGUAUCUAGAAUUAUGAAAGCAAUUUUCGUACUGAAUGCGGAAUUC)”, for which, in data set [1], the CAT expression was 1. Also, the “Level of CAT expression” value in data set [1] (relative, level 1 arbitrarily assigned to pTEXCAT, mean±standard deviation of two independent experiments) is reported as 1. For the same compound, the “CAT band (28 kDa) on SDS-PAGE gel” value in data set [3] is given as “only a band of low intensity”.

“pTEX12′: vector derived from pTEX9′, initiation codon directly upstream of the cloning site, SEQ ID No. 37 (DNA UGAGGAGAGUAAUCAUGGAAUUC)” showed a CAT expression in data set [1] of 155.
